Among the data in patent US20060079453A1, “Hla binding peptides and their uses” (priority 2002, published 2006) are IC50 values, retold here.

Where two headings read alike, the source gives them in different places. No end group written: not given here. Where only a bound is given, the exact number is not on record here.

Common to all, as to experiment: biochemical
Format in all cases: binding

For assay [1], the target named is HLA-DR DRB1*0101 (DR1) (Homo sapiens, UniProt P01903+P01911, A100R/D57E/F55L/F60I/F76Y/I96L/L162R/M171V/P40L/Q125E/R42F/V115G/Y59C).
The target in assay [2] is HLA-DR DRB1*0401 (DR4) (Homo sapiens, UniProt P01903+P01911, A100K/A169T/F76Y/I96L/K127E/L162R/M171V/N62H/P40V/Q125Y/R42H/S133A/S149N/S66Y/V115G/V209L/W38E).
The target in assay [3] is HLA-DR DRB1*1101 (DR11) (Homo sapiens, UniProt P01903+P01911, A100R/A169T/A87E/I96F/K41T/L162R/M171V/P40S/Q125H/Q178H/Q39Y/Q99D/R42S/S66Y/T262R/V115G/W38E).
Assay [4] addresses HLA-DR DRB5*0101 (DR51) (Homo sapiens, UniProt P01903+Q30154).
Assay [5] addresses HLA-DR DRB1*1302 (DR13) (Homo sapiens, UniProt P01903+P01911, A100E/A169T/K41T/L162R/M171V/P40S/Q125H/Q178H/Q39Y/Q99D/R42S/S66N/T262R/V115G/W38E/Y61H).
Assay [6] has as its target HLA-DR DRB1*1501 (DR15) (Homo sapiens, UniProt P01903+P01911).
In assay [7] the target is HLA-DR DRB1*0301 (DR3) (Homo sapiens, UniProt P01903+P01911, A100K/A102G/A103R/A169T/F55Y/I96L/K41T/L162R/M171V/P40S/Q125H/Q178H/Q39Y/R42S/S66N/T106N/T262R/W38E/Y61H).
The target in assay [8] is HLA-DR DRB4*0101 (DR53) (Homo sapiens, UniProt P01903+P13762, G164S).
For assay [9], the target named is HLA-DR DRB1*0701 (DR7) (Homo sapiens, UniProt P01903+P01911, A100R/A102G/A103Q/D57E/D86V/E43K/F76Y/K127E/L162R/M171V/P40G/Q125H/Q99D/R33Q/R42Y/R54Q/S133A/S66F/T210M/V115G/Y107V/Y59L/Y89S).

HLA-DR DRB1*1302 (DR13), sequence (P01903 26-254 limits assumed, other chains not shown): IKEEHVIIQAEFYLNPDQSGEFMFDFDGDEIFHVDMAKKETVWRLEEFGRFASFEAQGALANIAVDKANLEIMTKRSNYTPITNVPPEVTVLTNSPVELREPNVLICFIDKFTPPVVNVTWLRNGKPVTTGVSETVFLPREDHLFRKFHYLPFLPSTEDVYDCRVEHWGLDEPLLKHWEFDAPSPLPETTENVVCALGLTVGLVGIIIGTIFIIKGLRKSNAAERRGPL
HLA-DR DRB1*0301 (DR3), sequence (P01903 26-254 limits assumed, other chains not shown): as above
HLA-DR DRB1*1101 (DR11), sequence (P01903 26-254 limits assumed, other chains not shown): as above

Regarding YEEYVRFDSDVGE, the IC50 in assay [1] (DRB1 *0101) is not below 50000 nM; in assay [2] (DRB1 *0401), 400 nM; in assay [3] (DRB1 *1101), not below 200000 nM; in [4] (DRB5 *0101) it was not below 200000 nM.

Consider TYSVSFDSLFSAVKN, for which the IC50 in assay [3] (read-out: DRB1 *1101) was 5980 nM; in [5] (read-out: DRBI *1302), 5890 nM; in assay [6] (read-out: DRBI *1501) it was 3220 nM; in [4] (read-out: DRB5 *0101), 61 nM.

In the case of ALLKNYGLLYCFRIW, the figures for the IC50 in [3] (read-out: DRB1 *1101), in [5] (read-out: DRBI *1302) and in assay [6] (read-out: DRBI *1501) were more than 15400 nM, 10 nM and 17 nM, respectively.

As for AALAAAAAAKAAA, the IC50 in assay [1] (read-out: DRB1 *0101) came out at 1.9 nM; in [2] (read-out: DRB1 *0401), 12 nM; in [3] (read-out: DRB1 *1101) it was 2220 nM; in assay [4] (read-out: DRB5 *0101), 67 nM.

Take REYILDLHPEPTDLF: the IC50 in assay [3] (read-out: DRB1 *1101) was 4150 nM; in assay [6] (read-out: DRBI *1501), more than 33100 nM; in assay [4] (read-out: DRB5 *0101), more than 31400 nM.

Regarding LSHFLKEKGGLEGL, the results for the IC50 in [1] (read-out: DRB1 *0101) and in assay [7] (read-out: DRB1 *0301) were 537 nM and more than 341000 nM, respectively.

As to LAHYDVLLSYPNKTA, the IC50 in assay [3] (read-out: DRB1 *1101) was determined as 380 nM; in assay [6] (read-out: DRBI *1501), 82 nM; in [8] (read-out: DRB4 *0101) it was 589 nM.

On to LREYILDLHPEPTDL, for which the values for the IC50 in [3] (read-out: DRB1 *1101) and in assay [4] (read-out: DRB5 *0101) were 9830 nM and more than 40400 nM, respectively.

SVTWIGAAPLILSRI: the IC50 was 2200 nM in assay [3] (read-out: DRB1 *1101), 420 nM in [5] (read-out: DRBI *1302) and 42 nM in [8] (read-out: DRB4 *0101).

For the substance ALVRQGLAKVA, the IC50 in [2] (DRB1 *0401) was 190 nM; in assay [3] (DRB1 *1101) it was not below 200000 nM; in [4] (DRB5 *0101), more than 10000 nM.

In the case of “DPNANPNVDPNANPNVNANPNANPNANP(X4)QKWAAVVVPS”, the IC50 is more than 12500 nM in [3] (read-out: DRB1 *1101), more than 7580 nM in [6] (read-out: DRBI *1501), more than 72500 nM in assay [8] (read-out: DRB4 *0101) and more than 2900 nM in [4] (read-out: DRB5 *0101).

For the substance YAGIRRDGLLLRLVD, in assay [7], the IC50 was found to be 9.6 nM.

Regarding KATLQDIVLHLEPQN, the IC50 in assay [1] (DRB1 *0101) was found to be 1200 nM; in assay [2] (DRB1 *0401) it was 1990 nM; in assay [9] (DRB1 *0701) it was 9090 nM; in assay [3] (DRB1 *1101), 25900 nM; in assay [5] (DRBI *1302), 603 nM; in assay [6] (DRBI *1501) it was 6970 nM. The IC50 in assay [8] (DRB4 *0101) is 159 nM; in assay [4] (DRB5 *0101) it was more than 9930 nM.

For the substance DRTLMSAMTNLAALE, the IC50 in [1] (read-out: DRB1 *0101) was 97 nM; in assay [7] (read-out: DRB1 *0301), 64300 nM; in assay [2] (read-out: DRB1 *0401), 13 nM; in [9] (read-out: DRB1 *0701), 383 nM.

On to IQQLLMGTVNIVCPT, for which the IC50 in assay [3] (read-out: DRB1 *1101) is 11100 nM; in assay [5] (read-out: DRBI *1302), 9 nM; in [6] (read-out: DRBI *1501), 2010 nM; in assay [4] (read-out: DRB5 *0101) it was more than 55100 nM.

As to LSFFLKEKGGLDGLI, the IC50 is 614 nM in assay [3] (read-out: DRB1 *1101), more than 12000 nM in assay [5] (read-out: DRBI *1302) and more than 39700 nM in assay [6] (read-out: DRBI *1501).

In the case of EEYVRFDSDVGE, the IC50 was not below 50000 nM in assay [1] (DRB1 *0101), 216 nM in assay [2] (DRB1 *0401), not below 200000 nM in [3] (DRB1 *1101) and not below 200000 nM in assay [4] (DRB5 *0101).

For Ac-NPTKHKWEAAHVAEQLAA, the IC50 in assay [3] (DRB1 *1101) is more than 33300 nM; in assay [5] (DRBI *1302) it was more than 10000 nM; in assay [6] (DRBI *1501), 200000 nM.

On to CIVYRDCIAYAACHK, for which the IC50 in assay [2] (read-out: DRB1 *0401) is 928 nM; in assay [9] (read-out: DRB1 *0701), more than 14600 nM; in assay [3] (read-out: DRB1 *1101) it was 35600 nM; in assay [4] (read-out: DRB5 *0101), 1910 nM.

Take DRTLMSAMTNLAALF: the IC50 in assay [3] (read-out: DRB1 *1101) is 2370 nM; in assay [8] (read-out: DRB4 *0101) it was 57 nM; in [4] (read-out: DRB5 *0101), 26100 nM.

Regarding TCCYTCGTTVRLCIN, the results for the IC50 in assay [7] (read-out: DRB1 *0301), in assay [2] (read-out: DRB1 *0401) and in assay [9] (read-out: DRB1 *0701) were 19900 nM, 719 nM and 63 nM, respectively.

For the substance (16A)RQTTLKAAA, the IC50 was determined as 1.3 nM in [2] (read-out: DRB1 *0401), 77 nM in [3] (read-out: DRB1 *1101) and 4000 nM in [4] (read-out: DRB5 *0101).

For the substance YNFACTELKLVYRDD, the IC50 in assay [1] (DRB1 *0101) amounted to 7520 nM; in assay [7], 346 nM; in assay [2] (DRB1 *0401), 1980 nM; in assay [9] (DRB1 *0701) it was 2870 nM; in assay [5] (DRBI *1302), 10200 nM; in assay [8] (DRB4 *0101), 12900 nM.

In the case of KKPLNEILIRCHCQ, the IC50 came out at 1300 nM in assay [3] (read-out: DRB1 *1101), 965 nM in assay [5] (read-out: DRBI *1302) and 140 nM in assay [8] (read-out: DRB4 *0101).
